For assay [1], the target named is T1, WEE1 (Homo sapiens, UniProt P30291+Q96SW2).
T1 construct: endogenous in cells; host or cells: hPBMCs (Milecell Biotechnologies)
The assay is described as follows: Western-blot assay of substrate protein degradation in hPBMCs, WEE1. The format is cell-based. Particulars: 24 hours of compound treatment, compounds tested at 50 nM and 500 nM (concentration of the table not stated).

Assay [2] deals with T2, IKZF1 (Homo sapiens, UniProt Q13422+Q96SW2).
T2 construct: endogenous in cells; host or cells: hPBMCs (Milecell Biotechnologies)
The assay is described as follows: Western-blot assay of substrate protein degradation in hPBMCs, IKZF1. The format is cell-based. Particulars: 24 hours of compound treatment, compounds tested at 50 nM and 500 nM (concentration of the table not stated).

Assay [3] relates to Jurkat. The assay is described as follows: Tumor cell proliferation inhibition (CellTiter-Meiluncell Luminescent Cell Viability Assay), Jurkat. Particulars: Homo sapiens, read-out: inhibitory activity (IC50, nM) against tumor cells proliferation, Jurkat.
The target in assay [4] is T3, IKZF3 (Homo sapiens, UniProt Q96SW2+Q9UKT9).
T3 construct: endogenous in cells; host or cells: hPBMCs (Milecell Biotechnologies)
T3 sequence (Q9UKT9 whole entry): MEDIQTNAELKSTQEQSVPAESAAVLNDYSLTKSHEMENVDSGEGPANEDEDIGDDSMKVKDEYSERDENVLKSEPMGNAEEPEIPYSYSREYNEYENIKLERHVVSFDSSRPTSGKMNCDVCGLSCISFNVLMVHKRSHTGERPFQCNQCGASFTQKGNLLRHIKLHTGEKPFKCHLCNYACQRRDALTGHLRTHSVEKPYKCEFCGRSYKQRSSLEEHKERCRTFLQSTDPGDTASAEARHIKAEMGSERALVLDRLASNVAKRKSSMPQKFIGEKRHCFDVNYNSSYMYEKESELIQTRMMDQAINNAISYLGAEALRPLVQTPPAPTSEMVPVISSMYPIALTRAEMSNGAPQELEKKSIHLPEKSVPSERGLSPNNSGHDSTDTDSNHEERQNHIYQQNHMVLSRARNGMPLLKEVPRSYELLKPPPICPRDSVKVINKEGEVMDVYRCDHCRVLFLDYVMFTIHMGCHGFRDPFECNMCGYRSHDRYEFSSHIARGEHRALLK
T3 sequence (Q96SW2 whole entry): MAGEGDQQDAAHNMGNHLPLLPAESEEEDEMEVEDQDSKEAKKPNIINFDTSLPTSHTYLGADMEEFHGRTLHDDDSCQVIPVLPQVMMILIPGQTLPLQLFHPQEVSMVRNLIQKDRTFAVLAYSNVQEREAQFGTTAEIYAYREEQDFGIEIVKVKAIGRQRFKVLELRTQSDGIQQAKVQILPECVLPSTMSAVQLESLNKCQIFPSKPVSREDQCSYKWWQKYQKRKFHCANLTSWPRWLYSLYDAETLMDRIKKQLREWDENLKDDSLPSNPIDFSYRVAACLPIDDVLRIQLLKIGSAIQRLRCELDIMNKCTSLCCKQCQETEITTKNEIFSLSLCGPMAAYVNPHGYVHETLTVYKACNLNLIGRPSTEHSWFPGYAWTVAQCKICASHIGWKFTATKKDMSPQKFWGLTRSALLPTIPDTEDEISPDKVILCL
T3 sequence (Q16531 whole entry partner): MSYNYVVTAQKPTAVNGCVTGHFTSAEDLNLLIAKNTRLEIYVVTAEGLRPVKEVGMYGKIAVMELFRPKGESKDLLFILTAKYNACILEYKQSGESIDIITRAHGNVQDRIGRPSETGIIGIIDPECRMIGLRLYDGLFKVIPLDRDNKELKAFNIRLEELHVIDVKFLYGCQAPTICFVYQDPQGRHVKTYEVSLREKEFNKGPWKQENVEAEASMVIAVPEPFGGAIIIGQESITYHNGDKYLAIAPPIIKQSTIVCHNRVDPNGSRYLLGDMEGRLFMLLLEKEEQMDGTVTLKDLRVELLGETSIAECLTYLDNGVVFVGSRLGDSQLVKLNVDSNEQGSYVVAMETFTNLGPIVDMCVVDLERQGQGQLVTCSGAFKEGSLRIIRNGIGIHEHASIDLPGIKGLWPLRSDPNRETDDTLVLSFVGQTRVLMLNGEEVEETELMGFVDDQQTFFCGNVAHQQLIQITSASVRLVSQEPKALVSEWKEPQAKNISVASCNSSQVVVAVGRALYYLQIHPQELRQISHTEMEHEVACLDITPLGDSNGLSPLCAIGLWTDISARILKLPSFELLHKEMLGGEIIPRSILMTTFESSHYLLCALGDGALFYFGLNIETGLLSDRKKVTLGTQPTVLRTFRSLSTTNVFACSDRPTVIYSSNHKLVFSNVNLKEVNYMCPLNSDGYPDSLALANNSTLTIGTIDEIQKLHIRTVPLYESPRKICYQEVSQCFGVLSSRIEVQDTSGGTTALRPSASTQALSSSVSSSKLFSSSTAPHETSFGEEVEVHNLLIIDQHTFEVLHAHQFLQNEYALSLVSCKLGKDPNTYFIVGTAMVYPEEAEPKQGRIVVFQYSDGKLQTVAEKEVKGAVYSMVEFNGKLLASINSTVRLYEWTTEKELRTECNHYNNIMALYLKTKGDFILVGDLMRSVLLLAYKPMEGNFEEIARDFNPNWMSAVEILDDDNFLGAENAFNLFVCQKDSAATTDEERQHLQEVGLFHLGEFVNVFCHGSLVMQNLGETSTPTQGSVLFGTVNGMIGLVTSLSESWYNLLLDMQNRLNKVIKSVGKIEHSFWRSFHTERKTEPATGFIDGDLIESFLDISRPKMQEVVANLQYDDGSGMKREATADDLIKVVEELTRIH
The assay is described as follows: Western-blot assay of substrate protein degradation in hPBMCs, IKZF3. The format is cell-based. Particulars: 24 hours of compound treatment, compounds tested at 50 nM and 500 nM (concentration of the table not stated).

The subject of assay [5] is MM.1S. The assay is described as follows: Tumor cell proliferation inhibition (CellTiter-Meiluncell Luminescent Cell Viability Assay), MM.1S. To be noted: Homo sapiens, MM1.S, read-out: inhibitory activity (IC50, nM) against tumor cells proliferation, MM.1S.
Assay [6] relates to SR. The assay is described as follows: Tumor cell proliferation inhibition (CellTiter-Meiluncell Luminescent Cell Viability Assay), SR. To be noted: Homo sapiens, read-out: inhibitory activity (IC50, nM) against tumor cells proliferation, SR.
Assay [7] deals with T4, IKZF2 (Homo sapiens, UniProt Q96SW2+Q9UKS7).
T4 construct: endogenous in cells; host or cells: hPBMCs (Milecell Biotechnologies)
T4 sequence (Q9UKS7 whole entry): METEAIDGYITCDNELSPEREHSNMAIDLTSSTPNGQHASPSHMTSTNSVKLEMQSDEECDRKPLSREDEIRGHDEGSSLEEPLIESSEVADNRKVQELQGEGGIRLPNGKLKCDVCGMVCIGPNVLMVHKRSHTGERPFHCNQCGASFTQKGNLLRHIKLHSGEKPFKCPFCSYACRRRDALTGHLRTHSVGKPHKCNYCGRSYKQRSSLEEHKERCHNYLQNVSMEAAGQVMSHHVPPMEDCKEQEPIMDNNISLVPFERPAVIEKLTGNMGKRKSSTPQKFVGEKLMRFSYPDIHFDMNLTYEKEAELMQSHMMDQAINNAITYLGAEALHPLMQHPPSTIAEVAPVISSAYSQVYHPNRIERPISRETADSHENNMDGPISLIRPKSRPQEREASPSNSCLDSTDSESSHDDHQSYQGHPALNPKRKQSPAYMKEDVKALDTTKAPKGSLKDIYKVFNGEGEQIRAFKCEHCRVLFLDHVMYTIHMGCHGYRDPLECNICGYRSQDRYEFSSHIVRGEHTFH
T4 sequence (Q96SW2 whole entry): as the sequence (Q96SW2 whole entry) above
T4 sequence (Q16531 whole entry partner): as the sequence (Q16531 whole entry partner) above
The assay is described as follows: Western-blot assay of substrate protein degradation in hPBMCs, IKZF2. To be noted: 24 hours of compound treatment, compounds tested at 50 nM and 500 nM (concentration of the table not stated). Type of assay: cell-based.

Assay [8] deals with T5, GSPT1 (Homo sapiens, UniProt P15170+Q96SW2).
T5 construct: endogenous in cells; host or cells: hPBMCs (Milecell Biotechnologies)
T5 sequence (P15170 whole entry): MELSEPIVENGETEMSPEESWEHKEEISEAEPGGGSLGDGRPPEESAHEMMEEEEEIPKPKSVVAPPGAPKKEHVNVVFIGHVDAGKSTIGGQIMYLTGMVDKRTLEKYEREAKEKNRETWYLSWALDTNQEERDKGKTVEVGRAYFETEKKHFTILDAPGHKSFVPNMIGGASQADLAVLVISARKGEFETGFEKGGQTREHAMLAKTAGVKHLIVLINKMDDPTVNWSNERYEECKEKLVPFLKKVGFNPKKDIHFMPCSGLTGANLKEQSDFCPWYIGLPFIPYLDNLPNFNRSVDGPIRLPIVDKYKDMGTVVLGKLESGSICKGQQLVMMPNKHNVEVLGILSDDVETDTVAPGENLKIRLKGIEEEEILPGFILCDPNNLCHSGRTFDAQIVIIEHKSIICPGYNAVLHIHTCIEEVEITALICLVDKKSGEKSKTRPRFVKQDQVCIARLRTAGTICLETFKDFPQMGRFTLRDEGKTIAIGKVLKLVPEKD
T5 sequence (Q96SW2 whole entry): as the sequence (Q96SW2 whole entry) above
T5 sequence (Q16531 whole entry partner): as the sequence (Q16531 whole entry partner) above
The assay is described as follows: Western-blot assay of substrate protein degradation in hPBMCs, GSPT1. The format is cell-based. Particulars: 24 hours of compound treatment, compounds tested at 50 nM and 500 nM (concentration of the table not stated).

For assay [9], the target named is T6, human Cereblon WT GST-tagged protein (Homo sapiens, UniProt Q96SW2).
T6 construct: purchased CISBIO 64BDCRBNPEH
T6 sequence (Q96SW2 whole entry): as the sequence (Q96SW2 whole entry) above
The assay is described as follows: CRBN-binding affinity by HTRF (CEREBLON BINDING kit). To be noted: HTRF inhibitory activity, CEREBLON BINDING kit; read-out: HTRF IC50.

For assay [10], the target named is T7, CK1α (Homo sapiens, UniProt P48729+Q96SW2).
T7 construct: endogenous in cells; host or cells: hPBMCs (Milecell Biotechnologies)
T7 sequence (P48729 whole entry): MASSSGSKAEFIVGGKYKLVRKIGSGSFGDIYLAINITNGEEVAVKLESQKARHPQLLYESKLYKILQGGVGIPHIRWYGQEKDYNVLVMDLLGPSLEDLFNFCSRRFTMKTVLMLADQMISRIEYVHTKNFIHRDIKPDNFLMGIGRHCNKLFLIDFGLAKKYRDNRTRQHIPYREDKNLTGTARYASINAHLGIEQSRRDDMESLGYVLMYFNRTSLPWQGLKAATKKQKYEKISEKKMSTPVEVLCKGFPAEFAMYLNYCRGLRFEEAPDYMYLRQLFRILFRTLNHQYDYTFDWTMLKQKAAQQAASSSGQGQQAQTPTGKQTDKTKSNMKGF
T7 sequence (Q96SW2 whole entry): as the sequence (Q96SW2 whole entry) above
T7 sequence (Q16531 whole entry partner): as the sequence (Q16531 whole entry partner) above
The assay is described as follows: Western-blot assay of substrate protein degradation in hPBMCs, CK1α. The format is cell-based. To be noted: 24 hours of compound treatment, compounds tested at 50 nM and 500 nM (concentration of the table not stated).

Assay [11] concerns NCI-H1975. The assay is described as follows: Tumor cell proliferation inhibition (CellTiter-Meiluncell Luminescent Cell Viability Assay), NCI-H1975. To be noted: Homo sapiens, NCI-H1975, read-out: inhibitory activity (IC50, nM) against tumor cells proliferation, H1975.

T1 sequence (P30291 whole entry): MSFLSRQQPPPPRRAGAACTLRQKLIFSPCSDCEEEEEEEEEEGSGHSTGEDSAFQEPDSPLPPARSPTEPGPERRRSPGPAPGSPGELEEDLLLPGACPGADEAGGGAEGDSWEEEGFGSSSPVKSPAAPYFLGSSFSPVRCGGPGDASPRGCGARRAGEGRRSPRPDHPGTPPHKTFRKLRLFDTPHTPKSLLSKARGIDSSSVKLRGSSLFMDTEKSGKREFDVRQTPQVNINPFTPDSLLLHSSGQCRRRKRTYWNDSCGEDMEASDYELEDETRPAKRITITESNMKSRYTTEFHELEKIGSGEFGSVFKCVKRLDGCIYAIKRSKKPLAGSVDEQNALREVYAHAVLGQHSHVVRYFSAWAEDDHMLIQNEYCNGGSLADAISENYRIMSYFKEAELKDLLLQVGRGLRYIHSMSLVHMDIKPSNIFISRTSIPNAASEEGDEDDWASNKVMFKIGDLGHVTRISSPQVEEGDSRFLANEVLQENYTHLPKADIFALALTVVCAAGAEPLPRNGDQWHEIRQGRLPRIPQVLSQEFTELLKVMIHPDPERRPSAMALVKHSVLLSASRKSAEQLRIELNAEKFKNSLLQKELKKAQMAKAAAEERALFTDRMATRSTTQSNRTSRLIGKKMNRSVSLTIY
T1 sequence (Q96SW2 whole entry): as the sequence (Q96SW2 whole entry) above
T1 sequence (Q16531 whole entry partner): as the sequence (Q16531 whole entry partner) above

`O=C1CCC(N2Cc3cc(CN4CC=C(c5ncnc6sc7c(c56)CCC7)CC4)ccc3C2=O)C(=O)N1` (stereo not drawn) [GT-04934, 3-(5-((4-(6,7-dihydro-5H-cyclopenta[4,5]thieno[2,3-d]pyrimidin-4-yl)-3,6-dihydropyridin-1(2H)-yl)methyl)-1-oxoisoindolin-2-yl)piperidine-2,6-dione]: the “Weel substrate protein remaining %” value in [1] is “A (0% ≤ substrate protein remaining % ≤ 80%)”. The “IKZF 1 substrate protein remaining %” value in assay [2] is on record as “A (0% ≤ substrate protein remaining % ≤ 80%)”. Moreover, the IC50 in assay [3] is 10 to 50 nM; in assay [5], less than 1 nM; in [6], 100 to 500 nM; in assay [9] it was less than 500 nM; in [11], 50 to 100 nM. Further, in [4], the “IKZF3 substrate protein remaining %” value is recorded as “A (0% ≤ substrate protein remaining % ≤ 80%)”. Besides, the “IKZF2 substrate protein remaining %” value in assay [7] is “A (0% ≤ substrate protein remaining % ≤ 80%)”. Further, in assay [8], the “GSPT1 substrate protein remaining %” value is on record as “A (0% ≤ substrate protein remaining % ≤ 80%)”. Moreover, in assay [10], the “CK1a substrate protein remaining %” value is “A (0% ≤ substrate protein remaining % ≤ 80%)”.
Turning to `CC(C)c1cc2c(C3=CCN(Cc4ccc5c(c4)CN(C4CCC(=O)NC4=O)C5=O)CC3)ncnc2s1` (stereo not drawn) [GT-04935, 3-(5-((4-(6-isopropylthieno[2,3-d]pyrimidin-4-yl)-3,6-dihydropyridin-1(2H)-yl)methyl)-1-oxoisoindolin-2-yl)piperidine-2,6-dione], the “Weel substrate protein remaining %” value in assay [1] is reported as “A (0% ≤ substrate protein remaining % ≤ 80%)”. The “IKZF 1 substrate protein remaining %” value in [2] is “A (0% ≤ substrate protein remaining % ≤ 80%)”. For the same compound, the IC50 in [3] is 1 to 5 nM; in assay [5], less than 1 nM; in [6] it was 10 to 50 nM; in assay [9] it was less than 500 nM; in [11], 1 to 5 nM. In addition, the “IKZF3 substrate protein remaining %” value in [4] is given as “A (0% ≤ substrate protein remaining % ≤ 80%)”. The “IKZF2 substrate protein remaining %” value in assay [7] was “A (0% ≤ substrate protein remaining % ≤ 80%)”. Further, the “GSPT1 substrate protein remaining %” value in [8] is reported as “A (0% ≤ substrate protein remaining % ≤ 80%)”. In addition, the “CK1a substrate protein remaining %” value in assay [10] is on record as “A (0% ≤ substrate protein remaining % ≤ 80%)”.
Turning to `O=C1CCC(N2Cc3cc(CN4CC=C(c5ncnc6sc(-c7ccccc7)cc56)CC4)ccc3C2=O)C(=O)N1` (stereo not drawn) [GT-05101, 3-(1-oxo-5-((4-(6-phenylthieno[2,3-d]pyrimidin-4-yl)-3,6-dihydropyridin-1(2H)-yl)methyl)isoindolin-2-yl)piperidine-2,6-dione], the “Weel substrate protein remaining %” value in assay [1] is “A (0% ≤ substrate protein remaining % ≤ 80%)”. In assay [2], the “IKZF 1 substrate protein remaining %” value is on record as “A (0% ≤ substrate protein remaining % ≤ 80%)”. Besides, the IC50 in [3] is 1 to 5 nM; in assay [5], less than 1 nM; in [6], 5 to 10 nM; in assay [9], 500 to 1000 nM; in [11] it was 1 to 5 nM. Also, the “IKZF3 substrate protein remaining %” value in [4] is “A (0% ≤ substrate protein remaining % ≤ 80%)”. For the same compound, the “IKZF2 substrate protein remaining %” value in [7] was “A (0% ≤ substrate protein remaining % ≤ 80%)”. In addition, the “GSPT1 substrate protein remaining %” value in [8] is given as “A (0% ≤ substrate protein remaining % ≤ 80%)”. In addition, the “CK1a substrate protein remaining %” value in [10] is recorded as “B (80%< substrate protein remaining %≤ 100%)”.

These data come from patent EP4745137A1 (Gluetacs Therapeutics (Shanghai) Co., Ltd., priority 2023, dated 2025).
